According to a compilation of properties of binary mixtures (doi:10.1039/c3ra40303c):

Assay: xn = mol fraction of the nth substance listed
Settings: 101 kPa

CC(O)C(=O)[O-].C[N+](C)(C)CCO + O
viscosity [mPa·s]
Settings | x2 = 0 | x2 = 0.0992 | x2 = 0.2048 | x2 = 0.3008 | x2 = 0.4038 | x2 = 0.5026 | x2 = 0.5858 | x2 = 0.701 | x2 = 0.7993 | x2 = 0.8998
293.15 K | 818 | 620 | 478 | 375 | 259.2 | – | 117.8 | 59.52 | – | –
298.15 K | – | 433 | 336.9 | 266.4 | – | 128 | – | 45.76 | – | 6.185
303.15 K | 393 | – | 242.5 | 193.6 | 138.2 | 95.8 | 66.88 | 35.7 | 16.85 | 5.25
308.15 K | 283.9 | 225.3 | 178.9 | – | 104.4 | 73.36 | 51.91 | 28.36 | 13.79 | –
313.15 K | 209.9 | 168.3 | 134.9 | 107.7 | 80.45 | 57.24 | 41.04 | 22.9 | 11.44 | –
318.15 K | 158.7 | 128.4 | 103.9 | 85.2 | 63.16 | 45.5 | 32.99 | 18.78 | – | 3.405
323.15 K | 122.3 | 99.8 | 81.5 | 67.27 | 50.43 | 36.74 | 26.93 | – | – | 3.001
328.15 K | 95.9 | 78.9 | 64.95 | 54 | 40.89 | 30.11 | 22.29 | 13.14 | – | 2.666
333.15 K | 76.5 | 63.39 | – | – | 33.61 | 24.92 | 18.67 | – | 6.101 | 2.384
338.15 K | 61.9 | 51.63 | 43.1 | 36.28 | 27.97 | 20.93 | 15.82 | 9.621 | 5.323 | 2.146
343.15 K | 50.76 | 42.6 | 35.8 | 30.3 | 23.55 | 17.78 | 13.55 | 8.353 | 4.692 | 1.941
348.15 K | 42.13 | 35.55 | 30.05 | 25.59 | 20.05 | 15.25 | 11.71 | 7.305 | 4.171 | –
353.15 K | 35.38 | – | 25.52 | 21.82 | 17.22 | 13.2 | 10.2 | 6.438 | – | –
